Laboratory results: patent US20260000781A1, “FC CONJUGATES INCLUDING AN INHIBITOR OF CD73 AND USES THEREOF” (Cidara Therapeutics, Inc., priority 2022, published 2026)
Like-named read-outs stand apart in the source and are kept apart here.

Legend:
[1] = molecular target: T1, surface-expressed CD73 on human PBMCs (Homo sapiens, UniProt P21589); assay: Human immune cell-based CD73 enzyme inhibition assay (PBMCs); settings: AMP 300 μM, 2.5-3 h
T1 construct: 72400 (T cells); host or cells: human PBMCs / human T cells
T1 sequence (P21589 27-549): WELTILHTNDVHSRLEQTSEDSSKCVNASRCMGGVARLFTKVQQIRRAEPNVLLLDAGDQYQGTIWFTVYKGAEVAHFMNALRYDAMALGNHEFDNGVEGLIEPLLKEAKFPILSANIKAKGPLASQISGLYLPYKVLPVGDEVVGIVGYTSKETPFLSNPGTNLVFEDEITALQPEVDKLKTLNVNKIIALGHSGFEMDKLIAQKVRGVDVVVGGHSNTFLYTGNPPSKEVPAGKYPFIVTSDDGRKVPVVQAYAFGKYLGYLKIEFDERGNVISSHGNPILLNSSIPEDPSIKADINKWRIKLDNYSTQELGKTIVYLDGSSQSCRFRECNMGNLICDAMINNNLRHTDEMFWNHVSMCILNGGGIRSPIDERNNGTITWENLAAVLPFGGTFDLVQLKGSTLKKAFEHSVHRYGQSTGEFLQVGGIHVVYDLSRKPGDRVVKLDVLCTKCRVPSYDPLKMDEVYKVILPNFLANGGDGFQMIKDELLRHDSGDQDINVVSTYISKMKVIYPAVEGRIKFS
Method: The human immune cell-based CD73 enzyme inhibition assay was performed essentially as described above For the cell-free assay, with the following modifications. Human PBMCs (cat. no. HUMAN-PBMC-U-211140) or T cells (cat. no. 72400, Stem Cell Tech) were seeded at 8×10^3 cells/well into 96-well tissue culture-treated plates. […] Percent CD73 inhibition versus concentration were plotted using GraphPad Prism Version 8 and IC50's calculated using nonlinear regression analysis ([inhibitor]vs normalized response).

[2] = molecular target: T2, CD73 on EMT6 mouse mammary carcinoma cells (Mus musculus, UniProt Q61503); assay: CD73 enzyme inhibition assay with mouse EMT6 cells (PiColorLock); format: cell-based; settings: mouse EMT6 cancer cells, AMP 100 μM
T2 construct: host or cells: EMT6
T2 sequence (Q61503 29-551): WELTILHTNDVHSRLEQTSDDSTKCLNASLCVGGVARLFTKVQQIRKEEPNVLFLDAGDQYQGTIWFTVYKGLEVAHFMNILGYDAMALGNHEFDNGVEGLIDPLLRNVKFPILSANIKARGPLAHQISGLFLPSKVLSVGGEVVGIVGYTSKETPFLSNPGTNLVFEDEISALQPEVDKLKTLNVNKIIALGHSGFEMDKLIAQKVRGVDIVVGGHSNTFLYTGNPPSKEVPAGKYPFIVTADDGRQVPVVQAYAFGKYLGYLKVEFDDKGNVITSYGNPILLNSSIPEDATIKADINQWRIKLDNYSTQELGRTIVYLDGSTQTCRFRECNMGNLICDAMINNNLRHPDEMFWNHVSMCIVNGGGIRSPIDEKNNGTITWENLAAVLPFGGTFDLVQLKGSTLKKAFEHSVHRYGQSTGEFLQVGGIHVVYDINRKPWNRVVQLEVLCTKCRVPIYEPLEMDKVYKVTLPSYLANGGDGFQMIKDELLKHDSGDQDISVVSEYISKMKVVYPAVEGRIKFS
Method: The cell-based CD73 enzyme inhibition assay was performed in a 96-well plate format using the Phosphate Assay Kit—PiColorLock™ in accordance with the manufacturer's instructions (cat no. 270004, Abcam). AMP is enzymatically converted by CD73 to adenosine and phosphate. Therefore, adenosine concentrations can be inferred from phosphate concentrations in 1:1 ratio. Both EMT6 mouse mammary carcinoma cells (ATCC CRL-2755) and human peripheral blood mononuclear cells (PBMC; Stemcell Technologies cat no. 70025, lot no. 2202401007) were assayed. The EMT6 cells were washed three times with a phosphate free CD73 buffer, detached from flasks using a cell scraper, and seeded at 3×10^3 cells/well in 100 μL into 96-well tissue culture-treated plates. Human PBMC cells were washed three times by suspending in phosphate free CD73 buffer and pelleting in a centrifuge at 125×g for 10 min at room temperature and seeded at 5×10^5 cells/well in 100 μL into 96-well tissue culture-treated plates. […] AMP was added at 100 μM and cells, test articles, and AMP were incubated together for 3 h and 24 h at 37° C., 5% CO2. The CD73 activity in the supernatant was quantified using the PiColorLock Phosphate assay kit. Colorimetric detection reagent was added and the free phosphate from the CD73 reaction was measured by reading the absorbance at 635 nm using the EnSpire multimode plate reader (PerkinElmer). Wells without test inhibitor (CD73 positive control) were included on each plate. Wells without test inhibitor and cells (background) were subtracted from all wells. The percent CD73 inhibition versus inhibitor concentration was plotted using GraphPad Prism Version 8 and IC50's calculated using nonlinear regression analysis (Sigmoidal, 4 PL).

[3] = molecular target: T3, human CD73/NT5E protein (Homo sapiens, UniProt P21589); assay: Human CD73 binding by surface plasmon resonance; settings: SPR, Biacore 8k; DFCs and mAbs on His-captured CD73, small molecules on NTA-captured CD73 (Table 14)
T3 construct: purchased Acro Biosystems CD3-H52H7
T3 sequence (P21589 27-549): T1 sequence (P21589 27-549)
Method: Kinetic binding of drug-Fc conjugates (DFCs) and comparator monoclonal antibodies (mAbs) to human CD73 by surface plasmon resonance (SPR) was performed by Acro Biosystems using the Biacore 8 k system (Cytiva). The anti-histidine antibody included in the His Capture Kit, type 2 (cat no. 29234602, Cytiva) was diluted to 50 μg/mL in immobilization buffer (10 mM sodium acetate, pH 4.5; cat no. 29234602, Cytiva) and immobilized at a flow rate of 10 μL/min for 420 s to 10,000 RU on a Series S Sensor Chip CM5 (cat no. 29149603, Cytiva). […] Sensorgrams were recorded by flowing 2-fold dilutions of analyte (DFC or mAb) in running buffer at concentrations ranging from 125 nM to 0.977 nM. Binding was measured at a flow rate of 30 μL/min, with a 90 s association phase and 120 s dissociation phase. […] Binding kinetics were analyzed using the data analysis software. […]
Binding of small molecule benchmark inhibitors to human CD73 by SPR was performed by Acro Biosystems using the Biacore 8 k system (Cytiva). […] Sensorgrams were recorded by flowing 2-fold dilutions of DFC analytes in running buffer at concentrations ranging from 15.625 nM to 0.977 nM. Binding was measured at a flow rate of 30 μL/min, with a 120 s association phase and 300 s dissociation phase. […] Binding kinetics were analyzed using the data analysis software. […]

IC50 [1] [pM]	IC50 ([2]; 3 h IC50 [nM], 3 h) [nM]	IC50 ([2]; 24 h, read-out: 24 h IC50) [nM]	Kd [3] [pM]	IC50 ([2]; read-out: 3 h IC50, 3 h) [nM]	Compound
20					COC[C@](CO)(OC[C@H]1O[C@@H](n2ncc3c(NC4CCCC4)nc(Cl)nc32)[C@H](O)[C@@H]1O)P(=O)(O)O [OP5244]
	1.06	2.29			C[C@H](Nc1cc(Cl)nc2c1cnn2[C@@H]1O[C@H](COP(=O)(O)CP(=O)(O)O)[C@@H](O)[C@H]1O)c1ccccc1F [AB680]
			3340		O=P(O)(O)COC[C@H]1O[C@@H](n2ncc3c(N4CC5(CCc6ccccc65)C4)nc(Cl)nc32)[C@H](O)[C@@H]1O [SHR170008]
		0.51	523	0.28	COC[C@](CO)(OC[C@H]1O[C@@H](n2ncc3c(NC4CCCC4)nc(Cl)nc32)[C@H](O)[C@@H]1O)P(=O)(O)O [OP-5244]
